# In PubChem BioAssay AID1963983 (Molecular Pharmacology Branch, DTP, NCI, 2024):
# Where “and” joins values, the source holds several entries; their conditions need not be identical. Equal entries are not always repeated.
# System: 186277-243-T-J2-PDC multi-cell spheroid viability
# Experiment: Anticancer human tumor 186277-243-T-J2-PDC patient-derived colon adenocarcinoma cell line growth inhibition [PI3K]
# Conditions: for viability, T/C: stronger effect = lower value
# Outline: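 Tumor cells were combined with HUVEC and MSCs into spheroids, then dosed with PI3K-inhibitor combinations over half-log ranges capped near clinical Cmax or 10 microM.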
# [1] = curve of first compound, second compound 0.0316 µM
# [2] = curve of first compound, second compound 0.1 µM
# [3] = curve of first compound, second compound 0.316 µM
# [4] = curve of first compound, second compound 1 µM
# [5] = curve of first compound, second compound 3.16 µM
# [6] = curve of first compound, second compound 10 µM
# [7] = second compound 0.0316 µM, first compound 0.00949 µM
# [8] = second compound 0.0316 µM, first compound 0.03 µM
# [9] = second compound 0.0316 µM, first compound 0.0949 µM
# [10] = second compound 0.0316 µM, first compound 0.3 µM
# [11] = second compound 0.0316 µM, first compound 0.949 µM
# [12] = second compound 0.0316 µM, first compound 3 µM
# [13] = second compound 0.1 µM, first compound 0.00949 µM
# [14] = second compound 0.1 µM, first compound 0.03 µM
# [15] = second compound 0.1 µM, first compound 0.0949 µM
# [16] = second compound 0.1 µM, first compound 0.3 µM
# [17] = second compound 0.1 µM, first compound 0.949 µM
# [18] = second compound 0.1 µM, first compound 3 µM
# [19] = second compound 0.316 µM, first compound 0.00949 µM
# [20] = second compound 0.316 µM, first compound 0.03 µM
# [21] = second compound 0.316 µM, first compound 0.0949 µM
# [22] = second compound 0.316 µM, first compound 0.3 µM
# [23] = second compound 0.316 µM, first compound 0.949 µM
# [24] = second compound 0.316 µM, first compound 3 µM
# [25] = second compound 1 µM, first compound 0.00949 µM
# [26] = second compound 1 µM, first compound 0.03 µM
# [27] = second compound 1 µM, first compound 0.0949 µM
# [28] = second compound 1 µM, first compound 0.3 µM
# [29] = second compound 1 µM, first compound 0.949 µM
# [30] = second compound 1 µM, first compound 3 µM
# 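Also: spheroids exposed to compounds for seven days before viability reading.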
# 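For viability, T/C in this document: 100% = DMSO vehicle control viability.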
smiles,measurement,setting,value
Cn1cnc2c(F)c(Nc3ccc(Br)cc3Cl)c(C(=O)NOCCO)cc21 + Cc1nc(NC(=O)N2CCCC2C(N)=O)sc1-c1ccnc(C(C)(C)C(F)(F)F)c1,IC50,[1],117 nM
same,IC50,[2],66.7 nM
same,IC50,[3],34.1 nM
same,IC50,[4],< 9.49 nM
same,IC50,[5],< 9.49 nM
same,IC50,[6],< 9.49 nM
same,"viability, T/C",[7],107%
same,"viability, T/C",[8],80.3%
same,"viability, T/C",[9],52.4%
same,"viability, T/C",[10],34.5%
same,"viability, T/C",[11],16.1%
same,"viability, T/C",[12],6.83%
same,"viability, T/C",[13],100%
same,"viability, T/C",[14],67.8%
same,"viability, T/C",[15],42.1%
same,"viability, T/C",[16],25.4%
same,"viability, T/C",[17],13%
same,"viability, T/C",[18],9.02%
same,"viability, T/C",[19],76.8%
same,"viability, T/C",[20],53.5%
same,"viability, T/C",[21],28.9%
same,"viability, T/C",[22],18.5%
same,"viability, T/C",[23],8.47%
same,"viability, T/C",[24],3.53%
same,"viability, T/C",[25],48.1%
same,"viability, T/C",[26],28.6%
same,"viability, T/C",[27],16.6%
same,"viability, T/C",[28],5.87%
same,"viability, T/C",[29],4.04%
same,"viability, T/C",[30],1.48%
same,"viability, T/C","second compound 3.16 µM, first compound 0.00949 µM",23%
same,"viability, T/C","second compound 3.16 µM, first compound 0.03 µM",10.6%
same,"viability, T/C","second compound 3.16 µM, first compound 0.0949 µM",5.72%
same,"viability, T/C","second compound 3.16 µM, first compound 0.3 µM",3.73%
same,"viability, T/C","second compound 3.16 µM, first compound 0.949 µM",2.72%
same,"viability, T/C","second compound 3.16 µM, first compound 3 µM",0.62%
same,"viability, T/C","second compound 10 µM, first compound 0.00949 µM",3.43%
same,"viability, T/C","second compound 10 µM, first compound 0.03 µM",3.24%
same,"viability, T/C","second compound 10 µM, first compound 0.0949 µM",1.7%
same,"viability, T/C","second compound 10 µM, first compound 0.3 µM",2.06%
same,"viability, T/C","second compound 10 µM, first compound 0.949 µM",1.21%
same,"viability, T/C","second compound 10 µM, first compound 3 µM",0.89%
CC(=O)c1c(C)c2cnc(Nc3ccc(N4CCNCC4)cn3)nc2n(C2CCCC2)c1=O,"viability, T/C",compound 0.000316 µM,97.1% [middle of 4 runs]
same,"viability, T/C",compound 0.001 µM,91.1% [middle of 4 runs]
same,"viability, T/C",compound 0.00316 µM,91.5% and 103% and 102% (2×)
same,"viability, T/C",compound 0.01 µM,105% [middle of 4 runs]
same,IC50,curve of compound,> 100 nM
Cn1cnc2c(F)c(Nc3ccc(Br)cc3Cl)c(C(=O)NOCCO)cc21 + CC(Nc1ccc2c(c1)OCCn1cc(N3C(=O)OCC3C(F)F)nc1-2)C(N)=O,IC50,"curve of first compound, second compound 0.00316 µM",115 nM
same,IC50,"curve of first compound, second compound 0.01 µM",77.8 nM
same,IC50,[1],39.4 nM
same,IC50,[2],11.9 nM
same,IC50,[3],< 9.49 nM
same,IC50,[4],< 9.49 nM
same,"viability, T/C","second compound 0.00316 µM, first compound 0.00949 µM",97.2%
same,"viability, T/C","second compound 0.00316 µM, first compound 0.03 µM",83%
same,"viability, T/C","second compound 0.00316 µM, first compound 0.0949 µM",47.7%
same,"viability, T/C","second compound 0.00316 µM, first compound 0.3 µM",36.6%
same,"viability, T/C","second compound 0.00316 µM, first compound 0.949 µM",14.2%
same,"viability, T/C","second compound 0.00316 µM, first compound 3 µM",8.95%
same,"viability, T/C","second compound 0.01 µM, first compound 0.00949 µM",101%
same,"viability, T/C","second compound 0.01 µM, first compound 0.03 µM",79.8%
same,"viability, T/C","second compound 0.01 µM, first compound 0.0949 µM",40.4%
same,"viability, T/C","second compound 0.01 µM, first compound 0.3 µM",26.5%
same,"viability, T/C","second compound 0.01 µM, first compound 0.949 µM",15.9%
same,"viability, T/C","second compound 0.01 µM, first compound 3 µM",9.46%
same,"viability, T/C",[7],94%
same,"viability, T/C",[8],54.5%
same,"viability, T/C",[9],32.8%
same,"viability, T/C",[10],19.2%
same,"viability, T/C",[11],10.6%
same,"viability, T/C",[12],6.13%
same,"viability, T/C",[13],53.9%
same,"viability, T/C",[14],33.8%
same,"viability, T/C",[15],22.4%
same,"viability, T/C",[16],8.1%
same,"viability, T/C",[17],7.55%
same,"viability, T/C",[18],3.21%
same,"viability, T/C",[19],30.7%
same,"viability, T/C",[20],16.4%
same,"viability, T/C",[21],9.95%
same,"viability, T/C",[22],4.19%
same,"viability, T/C",[23],4.43%
same,"viability, T/C",[24],3.42%
same,"viability, T/C",[25],20.1%
same,"viability, T/C",[26],10.1%
same,"viability, T/C",[27],4.65%
same,"viability, T/C",[28],3.78%
same,"viability, T/C",[29],3.32%
same,"viability, T/C",[30],0.47%
CCN1CCN(Cc2ccc(Nc3ncc(F)c(-c4cc(F)c5nc(C)n(C(C)C)c5c4)n3)nc2)CC1 + Cc1nc(NC(=O)N2CCCC2C(N)=O)sc1-c1ccnc(C(C)(C)C(F)(F)F)c1,IC50,[1],> 1000 nM
same,IC50,[2],> 1000 nM
same,IC50,[3],> 1000 nM
same,IC50,[4],> 1000 nM
same,IC50,[5],< 3.16 nM
same,IC50,[6],< 3.16 nM
same,"viability, T/C","second compound 0.0316 µM, first compound 0.00316 µM",96.7%
same,"viability, T/C","second compound 0.0316 µM, first compound 0.01 µM",116%
same,"viability, T/C","second compound 0.0316 µM, first compound 0.0316 µM",107%
same,"viability, T/C","second compound 0.0316 µM, first compound 0.1 µM",139%
same,"viability, T/C","second compound 0.0316 µM, first compound 0.316 µM",147%
same,"viability, T/C","second compound 0.0316 µM, first compound 1 µM",137%
same,"viability, T/C","second compound 0.1 µM, first compound 0.00316 µM",97.4%
same,"viability, T/C","second compound 0.1 µM, first compound 0.01 µM",93%
same,"viability, T/C","second compound 0.1 µM, first compound 0.0316 µM",105%
same,"viability, T/C","second compound 0.1 µM, first compound 0.1 µM",127%
same,"viability, T/C","second compound 0.1 µM, first compound 0.316 µM",145%
same,"viability, T/C","second compound 0.1 µM, first compound 1 µM",124%
same,"viability, T/C","second compound 0.316 µM, first compound 0.00316 µM",97.9%
same,"viability, T/C","second compound 0.316 µM, first compound 0.01 µM",114%
same,"viability, T/C","second compound 0.316 µM, first compound 0.0316 µM",104%
same,"viability, T/C","second compound 0.316 µM, first compound 0.1 µM",103%
same,"viability, T/C","second compound 0.316 µM, first compound 0.316 µM",116%
same,"viability, T/C","second compound 0.316 µM, first compound 1 µM",92.5%
same,"viability, T/C","second compound 1 µM, first compound 0.00316 µM",101%
same,"viability, T/C","second compound 1 µM, first compound 0.01 µM",90.2%
same,"viability, T/C","second compound 1 µM, first compound 0.0316 µM",77.9%
same,"viability, T/C","second compound 1 µM, first compound 0.1 µM",78.1%
same,"viability, T/C","second compound 1 µM, first compound 0.316 µM",74%
same,"viability, T/C","second compound 1 µM, first compound 1 µM",62.8%
same,"viability, T/C","second compound 3.16 µM, first compound 0.00316 µM",49.8%
same,"viability, T/C","second compound 3.16 µM, first compound 0.01 µM",47.5%
same,"viability, T/C","second compound 3.16 µM, first compound 0.0316 µM",42.1%
same,"viability, T/C","second compound 3.16 µM, first compound 0.1 µM",37%
same,"viability, T/C","second compound 3.16 µM, first compound 0.316 µM",41.4%
same,"viability, T/C","second compound 3.16 µM, first compound 1 µM",28.6%
same,"viability, T/C","second compound 10 µM, first compound 0.00316 µM",15.8%
same,"viability, T/C","second compound 10 µM, first compound 0.01 µM",14.2%
same,"viability, T/C","second compound 10 µM, first compound 0.0316 µM",10.7%
same,"viability, T/C","second compound 10 µM, first compound 0.1 µM",9%
same,"viability, T/C","second compound 10 µM, first compound 0.316 µM",12.5%
same,"viability, T/C","second compound 10 µM, first compound 1 µM",12%
